Read-outs that look alike come from different tables or passages of the source.
Columns and labels:
[1] = In vitro rat microsomal stability assay; assay type: in vitro ADME, rat (Sprague-Dawley); settings: Sprague-Dawley, rat, microsomes, 0.5 h, 0.5 μM, pH 7.4
Experimental: (§1) Test compounds were evaluated for metabolic stability in an in vitro rat microsomal stability assay using rat liver microsomes (Sprague-Dawley, from BD Biosciences) and/or an in vitro human microsomal stability assay using human liver microsomes (Xenotech). […] Incubations were carried out at 37° C. with a final incubation volume of 135 μL. […] A 1.5 μL aliquot of reduced nicotine adenine disphosphonucleotide (NADPH) (Chem-Impex Int'L Inc., Lot 12532024) was also added to the time-zero plates.

[2] = In vitro human microsomal stability assay; assay type: in vitro ADME; settings: human, microsomes, 0.5 h, 0.5 μM, pH 7.4
Experimental: as §1

human TRPV3 = target: T1, human TRPV3 (Homo sapiens, UniProt Q8NET8); assay: In vitro antagonism of recombinant human TRPV3 activation (FLIPR Tetra calcium assay); assay type: cell-based; settings: HEK293 cells stably expressing human TRPV3, agonist 2-APB at 80 μM
T1 construct: expressed in transfected cells
T1 sequence (Q8NET8 1-790): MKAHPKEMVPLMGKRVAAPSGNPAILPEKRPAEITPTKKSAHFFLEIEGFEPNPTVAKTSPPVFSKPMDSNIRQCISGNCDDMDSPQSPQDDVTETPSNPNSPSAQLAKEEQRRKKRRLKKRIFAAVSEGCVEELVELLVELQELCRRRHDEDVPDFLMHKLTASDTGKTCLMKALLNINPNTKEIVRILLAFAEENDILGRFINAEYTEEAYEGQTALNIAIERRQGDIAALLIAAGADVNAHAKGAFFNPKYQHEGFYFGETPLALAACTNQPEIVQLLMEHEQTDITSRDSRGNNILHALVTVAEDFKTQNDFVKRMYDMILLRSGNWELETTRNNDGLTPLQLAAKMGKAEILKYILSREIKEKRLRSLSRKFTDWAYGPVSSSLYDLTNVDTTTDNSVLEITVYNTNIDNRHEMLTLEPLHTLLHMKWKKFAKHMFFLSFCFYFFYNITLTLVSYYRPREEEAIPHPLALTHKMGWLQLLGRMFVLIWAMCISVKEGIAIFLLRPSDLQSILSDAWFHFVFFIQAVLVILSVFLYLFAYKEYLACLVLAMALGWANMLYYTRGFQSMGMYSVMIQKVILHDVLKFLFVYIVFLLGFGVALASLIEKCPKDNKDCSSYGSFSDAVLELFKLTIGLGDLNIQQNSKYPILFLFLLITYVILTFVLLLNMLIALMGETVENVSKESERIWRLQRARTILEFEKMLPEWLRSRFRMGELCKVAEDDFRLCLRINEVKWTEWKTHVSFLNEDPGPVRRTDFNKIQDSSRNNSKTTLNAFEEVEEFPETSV
In short: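 HEK293 cells stably expressing human TRPV3, loaded with Calcium-4 dye for 90–120 min, received compound in DPBS, then 80 μM 2-APB (EC80) 3 min later. Max-minus-min fluorescence expressed as % of 2-APB response without antagonist; IC50 values mostly averages of n≥2 runs.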

[3] = actual measured value shown parenthetically, in most cases average of at least two runs, read-out: IC50
[4] = reported range, read-out: IC50 (range class)

O=C1CC(c2ccc(C(F)(F)F)cc2)([C@H](O)c2ccccn2)C1 (single isomer, unassigned) [Example 164]
RAT MICROSOMAL STABILITY (% REMAINING AFTER 30 MINUTES) [1]: 81%
HUMAN MICROSOMAL STABILITY (% REMAINING AFTER 30 MINUTES) [2]: 71%
IC50 (human TRPV3; [3]): 2.61 µM

O=C1CC(c2ccc(C(F)(F)F)cc2)([C@@H](O)c2ccccn2)C1 (single isomer, unassigned) [Example 165]
RAT MICROSOMAL STABILITY (% REMAINING AFTER 30 MINUTES) [1]: 77%
HUMAN MICROSOMAL STABILITY (% REMAINING AFTER 30 MINUTES) [2]: 83%
IC50 (human TRPV3; [3]): 16.6 µM

OC(C1CCCc2cccnc21)C1(c2ccc(F)c(F)c2)CCC1 (single isomer, unassigned) [Example 169, (anti)-[1-(3,4-difluorophenyl)cyclobutyl][5,6,7,8-tetrahydroquinolin-8-yl]-methanol]
RAT MICROSOMAL STABILITY (% REMAINING AFTER 30 MINUTES) [1]: <0.01%
HUMAN MICROSOMAL STABILITY (% REMAINING AFTER 30 MINUTES) [2]: <0.01%
IC50 (human TRPV3; [3]): 5.82 µM

OC(C1CCCc2cccnc21)C1(c2ccc(F)c(F)c2)CCC1 (single isomer, unassigned) [Example 170, (syn)-[1-(3,4-difluorophenyl)cyclobutyl][5,6,7,8-tetrahydroquinolin-8-yl]-methanol]
RAT MICROSOMAL STABILITY (% REMAINING AFTER 30 MINUTES) [1]: <0.01%
HUMAN MICROSOMAL STABILITY (% REMAINING AFTER 30 MINUTES) [2]: <0.01%
IC50 (human TRPV3; [3]): > 20 µM
IC50 (human TRPV3; [4]): > 20 µM

OC(C1CCCc2cccnc21)C1(c2ccc(OC(F)(F)F)cc2)CCC1 (single isomer, unassigned) [Example 177, (anti)-5,6,7,8-tetrahydroquinolin-8-yl{1-[4-(trifluoromethoxy)phenyl]-cyclobutyl}methanol]
RAT MICROSOMAL STABILITY (% REMAINING AFTER 30 MINUTES) [1]: <0.01%
HUMAN MICROSOMAL STABILITY (% REMAINING AFTER 30 MINUTES) [2]: 0.12%
IC50 (human TRPV3; [3]): 3.38 µM

OC(C1CCCc2cccnc21)C1(c2ccc(OC(F)(F)F)cc2)CCC1 (single isomer, unassigned) [Example 178, (syn)-5,6,7,8-tetrahydroquinolin-8-yl{1-[4-(trifluoromethoxy)phenyl]-cyclobutyl}methanol]
RAT MICROSOMAL STABILITY (% REMAINING AFTER 30 MINUTES) [1]: <0.01%
HUMAN MICROSOMAL STABILITY (% REMAINING AFTER 30 MINUTES) [2]: 9.2%
IC50 (human TRPV3; [3]): > 20 µM
IC50 (human TRPV3; [4]): > 20 µM

OC(C1CCCc2cccnc21)C1(c2cccc(C(F)(F)F)c2)CCC1 (single isomer, unassigned) [Example 179, (anti)-5,6,7,8-tetrahydroquinolin-8-yl{1-[3-(trifluoromethyl)phenyl]-cyclobutyl}methanol]
RAT MICROSOMAL STABILITY (% REMAINING AFTER 30 MINUTES) [1]: <0.01%
HUMAN MICROSOMAL STABILITY (% REMAINING AFTER 30 MINUTES) [2]: <0.01%
IC50 (human TRPV3; [3]): 2.95 µM

OC(C1CCCc2cccnc21)C1(c2cccc(C(F)(F)F)c2)CCC1 (single isomer, unassigned) [Example 180, (syn)-5,6,7,8-tetrahydroquinolin-8-yl{1-[3-(trifluoromethyl)phenyl]-cyclobutyl}methanol]
RAT MICROSOMAL STABILITY (% REMAINING AFTER 30 MINUTES) [1]: <0.01%
HUMAN MICROSOMAL STABILITY (% REMAINING AFTER 30 MINUTES) [2]: <0.01%
IC50 (human TRPV3; [3]): > 20 µM
IC50 (human TRPV3; [4]): > 20 µM

OC(C1CCCc2cccnc21)C1(c2ccc(Cl)c(Cl)c2)CCC1 (single isomer, unassigned) [Example 181, (anti)-[1-(3,4-dichlorophenyl)cyclobutyl][5,6,7,8-tetrahydroquinolin-8-yl]-methanol]
RAT MICROSOMAL STABILITY (% REMAINING AFTER 30 MINUTES) [1]: <0.01%
HUMAN MICROSOMAL STABILITY (% REMAINING AFTER 30 MINUTES) [2]: <0.01%
IC50 (human TRPV3; [3]): 1.98 µM

OC(C1CCCc2cccnc21)C1(c2ccc(Cl)c(Cl)c2)CCC1 (single isomer, unassigned) [Example 182, (syn)-[1-(3,4-dichlorophenyl)cyclobutyl][5,6,7,8-tetrahydroquinolin-8-yl]-methanol]
RAT MICROSOMAL STABILITY (% REMAINING AFTER 30 MINUTES) [1]: <0.01%
HUMAN MICROSOMAL STABILITY (% REMAINING AFTER 30 MINUTES) [2]: <0.01%
IC50 (human TRPV3; [3]): > 20 µM
IC50 (human TRPV3; [4]): > 20 µM

OC(C1CCCc2cccnc21)C1(c2ccc(C(F)(F)F)cc2)CCC1 (single isomer, unassigned) [Example 183, (anti)-5,6,7,8-tetrahydroquinolin-8-yl{1-[4-(trifluoromethyl)phenyl]-cyclobutyl}methanol]
RAT MICROSOMAL STABILITY (% REMAINING AFTER 30 MINUTES) [1]: <0.01%
HUMAN MICROSOMAL STABILITY (% REMAINING AFTER 30 MINUTES) [2]: <0.01%
IC50 (human TRPV3; [3]): 1.4 µM

OC(C1CCCc2cccnc21)C1(c2ccc(C(F)(F)F)cc2)CCC1 (single isomer, unassigned) [Example 184, (syn)-5,6,7,8-tetrahydroquinolin-8-yl{1-[4-(trifluoromethyl)phenyl]-cyclobutyl}methanol]
RAT MICROSOMAL STABILITY (% REMAINING AFTER 30 MINUTES) [1]: <0.01%
HUMAN MICROSOMAL STABILITY (% REMAINING AFTER 30 MINUTES) [2]: 0.46%
IC50 (human TRPV3; [3]): > 20 µM
IC50 (human TRPV3; [4]): > 20 µM

CC1(O)CC(c2ccc(OC(F)(F)F)cc2)(C(O)c2ccccn2)C1 (single isomer, unassigned) [Example 203]
RAT MICROSOMAL STABILITY (% REMAINING AFTER 30 MINUTES) [1]: 74%
HUMAN MICROSOMAL STABILITY (% REMAINING AFTER 30 MINUTES) [2]: >85%
IC50 (human TRPV3; [3]): 13.8 µM

CC1(O)CC(c2ccc(C(F)(F)F)cc2)(C(O)c2ccccn2)C1 (single isomer, unassigned) [Example 233]
RAT MICROSOMAL STABILITY (% REMAINING AFTER 30 MINUTES) [1]: 67%
HUMAN MICROSOMAL STABILITY (% REMAINING AFTER 30 MINUTES) [2]: >85%
IC50 (human TRPV3; [3]): 10.8 µM

O=C1CC(c2cccc(C(F)(F)F)c2)([C@H](O)c2ccccn2)C1 (single isomer, unassigned) [Example 241]
RAT MICROSOMAL STABILITY (% REMAINING AFTER 30 MINUTES) [1]: 59%
HUMAN MICROSOMAL STABILITY (% REMAINING AFTER 30 MINUTES) [2]: 66%
IC50 (human TRPV3; [3]): 1.67 µM

O=C1CC(c2cccc(C(F)(F)F)c2)([C@@H](O)c2ccccn2)C1 (single isomer, unassigned) [Example 243]
RAT MICROSOMAL STABILITY (% REMAINING AFTER 30 MINUTES) [1]: 55%
HUMAN MICROSOMAL STABILITY (% REMAINING AFTER 30 MINUTES) [2]: 64%
IC50 (human TRPV3; [3]): 18.5 µM

CC1(O)CC(c2cccc(C(F)(F)F)c2)(C(O)c2ccccn2)C1 (single isomer, unassigned) [Example 244]
RAT MICROSOMAL STABILITY (% REMAINING AFTER 30 MINUTES) [1]: 77%
HUMAN MICROSOMAL STABILITY (% REMAINING AFTER 30 MINUTES) [2]: 80%
IC50 (human TRPV3; [3]): 3.6 µM

OC1CC(c2ccc(Cl)c(Cl)c2)(C(O)c2ccccn2)C1 (single isomer, unassigned) [Example 247]
RAT MICROSOMAL STABILITY (% REMAINING AFTER 30 MINUTES) [1]: >85%
HUMAN MICROSOMAL STABILITY (% REMAINING AFTER 30 MINUTES) [2]: 62%
IC50 (human TRPV3; [3]): 4.31 µM

O=C1CC(c2cccc(OC(F)(F)F)c2)([C@H](O)c2ccccn2)C1 (single isomer, unassigned) [Example 256]
RAT MICROSOMAL STABILITY (% REMAINING AFTER 30 MINUTES) [1]: 55%
HUMAN MICROSOMAL STABILITY (% REMAINING AFTER 30 MINUTES) [2]: 44%
IC50 (human TRPV3; [3]): 2.24 µM

O=C1CC(c2cccc(OC(F)(F)F)c2)([C@@H](O)c2ccccn2)C1 (single isomer, unassigned) [Example 257]
RAT MICROSOMAL STABILITY (% REMAINING AFTER 30 MINUTES) [1]: 57%
HUMAN MICROSOMAL STABILITY (% REMAINING AFTER 30 MINUTES) [2]: 42%
IC50 (human TRPV3; [3]): 9.51 µM

O=C1CC(c2ccc(F)c(Cl)c2)([C@H](O)c2ccccn2)C1 (single isomer, unassigned) [Example 268]
RAT MICROSOMAL STABILITY (% REMAINING AFTER 30 MINUTES) [1]: 82%
HUMAN MICROSOMAL STABILITY (% REMAINING AFTER 30 MINUTES) [2]: 66%
IC50 (human TRPV3; [3]): 2.13 µM

OC1CC(c2cccc(OC(F)(F)F)c2)(C(O)c2ccccn2)C1 (single isomer, unassigned) [Example 272]
RAT MICROSOMAL STABILITY (% REMAINING AFTER 30 MINUTES) [1]: 48%
HUMAN MICROSOMAL STABILITY (% REMAINING AFTER 30 MINUTES) [2]: 54%
IC50 (human TRPV3; [3]): 0.19 µM

OC1CC(c2cccc(OC(F)(F)F)c2)(C(O)c2ccccn2)C1 (single isomer, unassigned) [Example 273]
RAT MICROSOMAL STABILITY (% REMAINING AFTER 30 MINUTES) [1]: 65%
HUMAN MICROSOMAL STABILITY (% REMAINING AFTER 30 MINUTES) [2]: 42%
IC50 (human TRPV3; [3]): 0.09 µM

Reference: patent publication US8772499B2, “TRPV3 modulators” (AbbVie Inc., priority 2011, dated 2014)
